This is an account of results in publication PMC10004634 (PLOS ONE, 2023).

One assay has as its target T1, PFPK5(P.falciparum) (Plasmodium falciparum, UniProt P61075).
T1 construct: gene MAL13P1.279
The experiment in a line: biochemical. As to conditions: read-out: Percent control / Zanubrutinib.

In the next assay the target is ERBB2 (Homo sapiens, UniProt P04626). The experiment in a line: Z'-Lyte kinase inhibition assay. It counts as biochemical. More on the design: purchased Thermo Fisher Scientific (Invitrogen Z'-Lyte service). As to conditions: 60 min preincubation. Here is the method: In all the assays, each test compound was preincubated with peptide/kinase mixture or kinase/antibody mixture for 60 min at room temperature before adding the ATP solution or AlexaFluor labeled Tracer to initiate the 60-min incubation of the reactants.

The next assay addresses PKNB(M.tuberculosis) (Mycobacterium tuberculosis, UniProt P9WI81). As to the kind of experiment: biochemical. As to conditions: read-out: Percent control / Ibrutinib.

ERBB2, sequence (P04626 23-1255): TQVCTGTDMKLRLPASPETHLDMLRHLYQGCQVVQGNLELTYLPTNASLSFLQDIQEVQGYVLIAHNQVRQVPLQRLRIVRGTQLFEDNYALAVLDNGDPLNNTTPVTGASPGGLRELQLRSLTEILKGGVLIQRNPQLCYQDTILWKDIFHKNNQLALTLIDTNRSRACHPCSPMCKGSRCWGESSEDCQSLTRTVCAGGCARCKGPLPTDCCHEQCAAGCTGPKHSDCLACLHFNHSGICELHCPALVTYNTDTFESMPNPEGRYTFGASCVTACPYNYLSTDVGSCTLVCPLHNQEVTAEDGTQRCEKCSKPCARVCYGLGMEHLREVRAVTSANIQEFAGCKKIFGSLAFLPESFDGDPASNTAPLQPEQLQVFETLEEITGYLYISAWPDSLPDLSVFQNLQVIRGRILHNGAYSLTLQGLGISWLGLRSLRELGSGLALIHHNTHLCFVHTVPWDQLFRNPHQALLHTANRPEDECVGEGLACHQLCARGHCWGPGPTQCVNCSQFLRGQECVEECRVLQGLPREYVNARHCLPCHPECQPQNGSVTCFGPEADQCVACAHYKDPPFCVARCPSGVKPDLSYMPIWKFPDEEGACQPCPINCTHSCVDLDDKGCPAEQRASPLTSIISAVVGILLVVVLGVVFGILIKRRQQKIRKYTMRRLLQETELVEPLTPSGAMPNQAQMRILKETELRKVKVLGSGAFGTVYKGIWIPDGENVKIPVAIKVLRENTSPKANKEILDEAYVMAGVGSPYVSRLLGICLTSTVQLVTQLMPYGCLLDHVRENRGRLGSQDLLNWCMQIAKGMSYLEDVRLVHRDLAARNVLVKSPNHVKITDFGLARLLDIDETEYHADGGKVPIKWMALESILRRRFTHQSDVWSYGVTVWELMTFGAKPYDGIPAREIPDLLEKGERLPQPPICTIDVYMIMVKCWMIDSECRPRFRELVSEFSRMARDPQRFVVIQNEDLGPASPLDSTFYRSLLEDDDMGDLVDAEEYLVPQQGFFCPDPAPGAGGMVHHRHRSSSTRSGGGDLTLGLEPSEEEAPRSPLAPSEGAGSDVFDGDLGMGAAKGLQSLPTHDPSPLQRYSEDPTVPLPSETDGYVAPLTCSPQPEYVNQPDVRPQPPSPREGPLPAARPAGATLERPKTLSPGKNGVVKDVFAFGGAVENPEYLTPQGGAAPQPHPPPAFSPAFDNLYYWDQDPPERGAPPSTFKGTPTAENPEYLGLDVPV
T1 sequence (P61075 whole entry): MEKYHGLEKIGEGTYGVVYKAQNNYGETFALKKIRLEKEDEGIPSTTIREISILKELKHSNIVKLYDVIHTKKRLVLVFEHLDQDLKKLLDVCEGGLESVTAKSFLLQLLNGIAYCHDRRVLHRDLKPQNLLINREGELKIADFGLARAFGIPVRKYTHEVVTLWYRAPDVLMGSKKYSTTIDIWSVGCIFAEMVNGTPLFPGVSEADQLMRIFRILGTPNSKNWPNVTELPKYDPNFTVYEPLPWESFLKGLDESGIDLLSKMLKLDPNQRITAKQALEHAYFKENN
PKNB(M.tuberculosis), sequence (P9WI81 whole entry, looked up): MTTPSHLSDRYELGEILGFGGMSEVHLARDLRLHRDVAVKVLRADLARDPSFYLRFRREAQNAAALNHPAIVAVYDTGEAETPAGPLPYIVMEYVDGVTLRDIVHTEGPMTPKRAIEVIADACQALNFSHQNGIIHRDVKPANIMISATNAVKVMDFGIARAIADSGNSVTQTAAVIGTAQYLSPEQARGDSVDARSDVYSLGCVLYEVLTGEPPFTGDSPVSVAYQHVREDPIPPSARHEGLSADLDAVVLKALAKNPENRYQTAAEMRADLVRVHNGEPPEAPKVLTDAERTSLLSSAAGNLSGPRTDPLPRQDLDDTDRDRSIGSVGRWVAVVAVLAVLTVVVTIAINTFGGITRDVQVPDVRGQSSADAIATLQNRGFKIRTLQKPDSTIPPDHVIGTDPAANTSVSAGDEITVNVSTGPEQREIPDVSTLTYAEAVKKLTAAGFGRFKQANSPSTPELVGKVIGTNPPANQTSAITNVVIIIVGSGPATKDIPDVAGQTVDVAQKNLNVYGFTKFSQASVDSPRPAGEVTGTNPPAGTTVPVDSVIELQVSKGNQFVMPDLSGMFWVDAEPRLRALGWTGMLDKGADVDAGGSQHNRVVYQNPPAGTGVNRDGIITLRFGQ

In the case of `C=CC(=O)N1CCC([C@@H]2CCNc3c(C(N)=O)c(-c4ccc(Oc5ccccc5)cc4)nn32)CC1` [Zanubrutinib], the remaining activity at 0.3 µM at PFPK5(P.falciparum) is 100%. Besides, inhibition against ERBB2 was half-maximal at 34.8 nM (IC50).

In the case of `C=CC(=O)N1CCC[C@@H](n2nc(-c3ccc(Oc4ccccc4)cc3)c3c(N)ncnc32)C1` [Ibrutinib], the remaining activity at 0.3 µM at PKNB(M.tuberculosis) was found to be 93%.
